Experimental data: US20030165954A1, “Cancer profiles” (Third Wave Technologies, Inc., priority 2002, published 2003)

Details: mouse, in vivo, iv

O=c1[nH]cc(F)c(=O)[nH]1 [5FU, 5-fluorouracil]
plasma concentrations: did not reach the levels in nude mice that they do in patients receiving clinical doses

CN(Cc1cnc2nc(N)nc(N)c2n1)c1ccc(C(=O)N[C@@H](CCC(=O)O)C(=O)O)cc1 [MTX, methotrexate]
plasma concentrations: did not reach the levels in nude mice that they do in patients receiving clinical doses
